Assays:
Format in all cases: biochemical
[1] = target: human PKR (Carna Bioscience # 05-156) (Homo sapiens, UniProt P19525); test: LanthaScreen TR-FRET kinase assay, GFP-eIF2alpha
[2] = target: human GCN2 (full length, purified; Carna Bioscience # 05-153) (Homo sapiens, UniProt Q9P2K8); test: LanthaScreen TR-FRET kinase assay, GFP-eIF2alpha
[3] = target: full-length human GCN2 (N-terminal twin StrepII tag) (Homo sapiens, UniProt Q9P2K8); test: in vitro kinase assay, immunoblot of p-Ser51 eIF2alpha; details: 100 uM ATP, 2 uM full-length eIF2alpha, 30 °C, 20 min, no tRNA
Chain of full-length human GCN2 (N-terminal twin StrepII tag) (Q9P2K8 whole entry): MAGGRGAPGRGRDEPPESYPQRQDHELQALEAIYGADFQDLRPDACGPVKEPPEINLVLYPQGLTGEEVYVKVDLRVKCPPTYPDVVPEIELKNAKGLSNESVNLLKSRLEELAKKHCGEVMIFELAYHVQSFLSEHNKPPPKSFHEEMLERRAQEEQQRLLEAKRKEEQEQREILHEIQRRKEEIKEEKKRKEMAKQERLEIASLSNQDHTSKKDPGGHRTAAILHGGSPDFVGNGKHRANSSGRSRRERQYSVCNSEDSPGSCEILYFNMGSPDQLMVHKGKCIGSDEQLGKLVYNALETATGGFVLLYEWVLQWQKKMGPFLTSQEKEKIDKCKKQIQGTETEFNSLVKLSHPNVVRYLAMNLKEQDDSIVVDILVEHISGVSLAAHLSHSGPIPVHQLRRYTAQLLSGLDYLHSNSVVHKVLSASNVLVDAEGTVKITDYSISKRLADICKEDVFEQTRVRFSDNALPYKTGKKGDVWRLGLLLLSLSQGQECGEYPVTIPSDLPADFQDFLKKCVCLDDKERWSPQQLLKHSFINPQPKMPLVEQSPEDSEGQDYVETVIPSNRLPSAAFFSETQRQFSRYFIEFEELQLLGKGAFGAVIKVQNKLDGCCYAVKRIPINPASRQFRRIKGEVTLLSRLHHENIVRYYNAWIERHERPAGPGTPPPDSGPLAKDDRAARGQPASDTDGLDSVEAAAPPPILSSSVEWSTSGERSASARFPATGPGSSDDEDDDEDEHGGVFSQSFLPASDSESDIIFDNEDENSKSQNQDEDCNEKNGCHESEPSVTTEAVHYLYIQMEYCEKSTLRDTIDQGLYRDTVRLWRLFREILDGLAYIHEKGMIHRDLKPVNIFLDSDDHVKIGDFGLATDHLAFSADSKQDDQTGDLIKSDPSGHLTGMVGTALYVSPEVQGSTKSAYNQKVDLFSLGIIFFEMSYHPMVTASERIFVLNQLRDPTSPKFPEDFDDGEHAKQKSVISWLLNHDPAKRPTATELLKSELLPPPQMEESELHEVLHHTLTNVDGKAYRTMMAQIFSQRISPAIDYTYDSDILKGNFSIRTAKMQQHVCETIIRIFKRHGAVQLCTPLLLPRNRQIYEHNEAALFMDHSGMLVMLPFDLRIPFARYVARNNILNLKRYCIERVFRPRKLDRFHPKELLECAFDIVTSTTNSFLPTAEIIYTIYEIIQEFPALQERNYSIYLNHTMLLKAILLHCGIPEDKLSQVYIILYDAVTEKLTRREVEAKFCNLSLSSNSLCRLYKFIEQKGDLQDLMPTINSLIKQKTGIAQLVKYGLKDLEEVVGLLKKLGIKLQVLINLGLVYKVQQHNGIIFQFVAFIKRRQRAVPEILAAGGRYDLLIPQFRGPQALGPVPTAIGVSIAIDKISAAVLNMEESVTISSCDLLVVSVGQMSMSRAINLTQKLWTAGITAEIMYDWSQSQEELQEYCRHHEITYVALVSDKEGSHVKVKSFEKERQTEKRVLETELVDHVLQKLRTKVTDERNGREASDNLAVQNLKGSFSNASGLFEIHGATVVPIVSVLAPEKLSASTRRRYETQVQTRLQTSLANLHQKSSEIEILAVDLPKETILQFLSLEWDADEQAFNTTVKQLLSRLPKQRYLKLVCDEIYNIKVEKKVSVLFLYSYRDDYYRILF

[4] = target: human HRI (Carna Bioscience # 05-154) (Homo sapiens, UniProt Q9BQI3); test: LanthaScreen TR-FRET kinase assay, GFP-eIF2alpha
Chain of human HRI (Carna Bioscience # 05-154) (Q9BQI3 whole entry): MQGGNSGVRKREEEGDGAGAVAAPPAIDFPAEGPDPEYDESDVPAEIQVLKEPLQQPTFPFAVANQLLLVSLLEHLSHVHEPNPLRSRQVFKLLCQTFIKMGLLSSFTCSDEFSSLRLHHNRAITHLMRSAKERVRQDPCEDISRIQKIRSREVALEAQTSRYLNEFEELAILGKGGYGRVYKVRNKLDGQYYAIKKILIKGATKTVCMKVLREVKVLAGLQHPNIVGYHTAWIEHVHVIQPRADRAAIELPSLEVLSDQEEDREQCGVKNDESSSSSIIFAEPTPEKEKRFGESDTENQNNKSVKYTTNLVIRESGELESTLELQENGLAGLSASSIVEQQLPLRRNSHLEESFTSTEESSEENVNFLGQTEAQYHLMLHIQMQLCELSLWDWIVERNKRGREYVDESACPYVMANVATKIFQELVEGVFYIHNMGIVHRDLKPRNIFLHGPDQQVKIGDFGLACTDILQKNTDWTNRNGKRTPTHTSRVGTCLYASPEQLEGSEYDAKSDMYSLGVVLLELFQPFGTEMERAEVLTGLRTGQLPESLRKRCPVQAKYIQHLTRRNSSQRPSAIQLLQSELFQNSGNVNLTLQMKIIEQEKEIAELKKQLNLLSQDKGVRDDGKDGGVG

Chain of human GCN2 (full length, purified; Carna Bioscience # 05-153) (Q9P2K8 whole entry): as the sequence (Q9P2K8 whole entry) above

IC50 [1] | IC50 [2] | fold activation [3] | IC50 [4] | SMILES
4.5 µM | > 3 µM |  |  | Cc1nn(-c2ccccc2)c2sc(C(=O)Nc3ccc(S(=O)(=O)NCc4ccco4)cc3)cc12 [compound 18, N-(4-{[(furan-2-yl)methyl]sulfamoyl}phenyl)-3-methyl-1-phenyl-1H-thieno[2,3-c]pyrazole-5-carboxamide]
 | > 3 µM |  |  | CS(=O)(=O)c1ncc(-c2ccc(Br)cc2)cn1 [compound 21, 5-(4-bromophenyl)-2-(methylsulfonyl)pyrimidine]
3.75 µM | > 3 µM | ~ 40 fold |  | Cc1nc(N)sc1-c1csc(Nc2ncccn2)n1 [compound 20, 4’-methyl-N∼2∼-2-pyrimidinyl-4,5’-bi-1,3-thiazole-2,2’-diamine]
3.26 µM | 0.00155 µM |  | 2.76 nM | COc1ncc(Cl)cc1S(=O)(=O)Nc1ccc(F)c(C#Cc2cnc(N)nc2)c1F [GCN2iB]

From publication doi:10.1101/2025.06.29.662197v2 (biorxiv, 2026)
